This is an account of results in ChEMBL document CHEMBL3758078, “Modification of the anabaseine pyridine nucleus allows achieving binding and functional selectivity for the α3β4 nicotinic acetylcholine receptor subtype” (Eur J Med Chem, 2016).

The target of test [1] is T1, Neuronal acetylcholine receptor; alpha4/beta2 (Homo sapiens) (UniProt P17787+P43681). As to the kind of experiment: Antagonist activity at human alpha4beta2 nACh receptor. Type of test: protein-complex assay.
For test [2], the species on record is Homo sapiens. Kind of test: Selectivity ratio of Ki for rat alpha4beta2 nACh receptor to Ki for human alpha3beta4 nACh receptor.
For test [3], the target named is T2, Neuronal acetylcholine receptor; alpha3/beta4 (Homo sapiens, UniProt P30926+P32297). Kind of test: Antagonist activity at human alpha3beta4 nACh receptor. Type of test: protein-complex assay.
T2 sequence (P30926 whole entry): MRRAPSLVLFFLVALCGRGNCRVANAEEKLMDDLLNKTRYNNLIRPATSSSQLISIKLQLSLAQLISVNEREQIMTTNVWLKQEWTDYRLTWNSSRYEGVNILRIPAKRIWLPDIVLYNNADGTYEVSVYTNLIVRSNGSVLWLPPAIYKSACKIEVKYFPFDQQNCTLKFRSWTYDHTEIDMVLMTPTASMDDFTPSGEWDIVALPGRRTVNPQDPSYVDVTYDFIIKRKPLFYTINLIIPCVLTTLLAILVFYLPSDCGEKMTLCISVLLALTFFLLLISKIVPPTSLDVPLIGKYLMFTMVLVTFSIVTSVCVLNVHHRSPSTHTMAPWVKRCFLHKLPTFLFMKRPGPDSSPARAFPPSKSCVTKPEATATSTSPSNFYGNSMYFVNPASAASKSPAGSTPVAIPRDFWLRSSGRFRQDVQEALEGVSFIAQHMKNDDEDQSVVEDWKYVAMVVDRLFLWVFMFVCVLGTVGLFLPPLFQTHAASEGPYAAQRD
T2 sequence (P32297 whole entry): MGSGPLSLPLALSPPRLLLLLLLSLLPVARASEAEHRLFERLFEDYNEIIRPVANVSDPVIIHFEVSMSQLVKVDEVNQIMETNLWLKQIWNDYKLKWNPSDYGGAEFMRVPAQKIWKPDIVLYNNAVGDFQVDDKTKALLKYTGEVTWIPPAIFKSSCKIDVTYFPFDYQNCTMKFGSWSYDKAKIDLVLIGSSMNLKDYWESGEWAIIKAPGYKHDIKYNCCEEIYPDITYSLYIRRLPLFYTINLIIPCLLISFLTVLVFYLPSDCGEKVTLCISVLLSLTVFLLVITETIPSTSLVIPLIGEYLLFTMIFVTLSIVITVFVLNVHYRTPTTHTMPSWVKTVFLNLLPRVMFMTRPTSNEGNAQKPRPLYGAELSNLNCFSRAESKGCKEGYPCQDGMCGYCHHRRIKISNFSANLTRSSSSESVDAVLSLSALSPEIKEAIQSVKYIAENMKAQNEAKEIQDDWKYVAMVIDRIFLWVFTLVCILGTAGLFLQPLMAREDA
For test [4], the target named is T2, Neuronal acetylcholine receptor; alpha3/beta4. Kind of test: Agonist activity at human alpha3beta4 nACh receptor expressed in rat […] cells assessed as increase in current amplitudes at 0.1 to 100 uM after 2 to 3 days by patch clamp assay relative to acetylcholine. Type of test: cell-based.
Test [5] has the same target. Kind of test: Displacement of [3H]-epibatidine from human alpha3beta4 nACh receptor expressed in HEK293 cells preincubated for 5 mins followed by radioligand addition by beta counting analysis. Type of test: cell-based. On the technique in general: Displacement assays read how much labelled ligand stays bound in the presence of the test substance.
In test [6] the target is T3, Neuronal acetylcholine receptor subunit alpha-7 (Homo sapiens, UniProt P36544). Kind of test: Agonist activity at human alpha7 nACh receptor expressed in rat GH4C1 cells assessed as increase in current amplitudes at 0.1 to 100 uM after 2 to 3 days by patch clamp assay. The format is cell-based. The conditions noted are these: GH4-C1. On the technique in general: The patch-clamp technique gives a direct electrical read-out from membranes.
T3 sequence (P36544 whole entry): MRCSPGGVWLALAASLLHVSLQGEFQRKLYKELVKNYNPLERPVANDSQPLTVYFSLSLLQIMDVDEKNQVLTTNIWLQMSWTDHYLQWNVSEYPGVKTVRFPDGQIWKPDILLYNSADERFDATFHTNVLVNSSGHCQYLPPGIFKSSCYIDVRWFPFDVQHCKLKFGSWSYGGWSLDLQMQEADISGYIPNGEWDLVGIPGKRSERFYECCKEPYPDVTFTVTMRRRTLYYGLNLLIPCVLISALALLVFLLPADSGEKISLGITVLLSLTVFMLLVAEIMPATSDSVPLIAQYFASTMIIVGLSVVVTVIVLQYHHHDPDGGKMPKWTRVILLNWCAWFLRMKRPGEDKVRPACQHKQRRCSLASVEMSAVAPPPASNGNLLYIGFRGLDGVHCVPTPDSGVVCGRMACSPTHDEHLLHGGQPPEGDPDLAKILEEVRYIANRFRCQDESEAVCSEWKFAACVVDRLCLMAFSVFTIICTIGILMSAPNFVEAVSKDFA

Test [7] addresses T1, Neuronal acetylcholine receptor; alpha4/beta2 (Homo sapiens). As to the kind of experiment: Agonist activity at human alpha4beta2 nACh receptor expressed in rat […] cells assessed as increase in current amplitudes at 0.1 to 100 uM after 2 to 3 days by patch clamp assay. The format is cell-based.
For test [8], the species on record is Homo sapiens. Kind of test: Selectivity ratio of Ki for rat alpha7 nACh receptor to Ki for human alpha3beta4 nACh receptor.
The target in test [9] is Neuronal acetylcholine receptor subunit alpha-7 (Rattus norvegicus, UniProt Q05941). Kind of test: Displacement of [125I] alpha bungarotoxin from rat alpha7 nACh receptor expressed in rat hippocampal membrane preincubated for 30 mins followed by radioligand addition by gamma counting analysis. Type of test: cell membranes, Hippocampus.
Chain of Neuronal acetylcholine receptor subunit alpha-7 (Rattus norvegicus, UniProt Q05941) (Q05941 whole entry): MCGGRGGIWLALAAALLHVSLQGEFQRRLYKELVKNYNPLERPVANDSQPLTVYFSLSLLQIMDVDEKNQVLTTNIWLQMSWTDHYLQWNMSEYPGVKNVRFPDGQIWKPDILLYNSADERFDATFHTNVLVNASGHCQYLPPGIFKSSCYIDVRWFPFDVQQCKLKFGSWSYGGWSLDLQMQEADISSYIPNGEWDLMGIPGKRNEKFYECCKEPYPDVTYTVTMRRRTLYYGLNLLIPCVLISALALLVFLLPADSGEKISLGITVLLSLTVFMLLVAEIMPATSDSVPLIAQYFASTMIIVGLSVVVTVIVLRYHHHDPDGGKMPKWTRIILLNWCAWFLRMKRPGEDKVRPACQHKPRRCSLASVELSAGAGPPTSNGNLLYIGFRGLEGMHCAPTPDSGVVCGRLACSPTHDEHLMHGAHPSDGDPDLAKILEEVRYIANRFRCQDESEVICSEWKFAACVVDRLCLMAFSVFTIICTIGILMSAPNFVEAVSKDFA
Test [10] addresses Neuronal acetylcholine receptor; alpha4/beta2 (Rattus norvegicus, UniProt P09483+P12390). Kind of test: Displacement of [3H]-epibatidine from rat alpha4beta2 nACh receptor expressed in rat cortical membrane preincubated for 30 mins followed by radioligand addition by […] analysis. Type of test: cell membranes.
In test [11] the target is T3, Neuronal acetylcholine receptor subunit alpha-7. As to the kind of experiment: Agonist activity at human alpha7 nACh receptor expressed in rat GH4C1 cells assessed as increase in current amplitudes after 2 to 3 days by patch clamp assay. The format is cell-based, GH4-C1.
In test [12] the target is T2, Neuronal acetylcholine receptor; alpha3/beta4. As to the kind of experiment: Agonist activity at human alpha3beta4 nACh receptor expressed in rat GH4C1 cells assessed as increase in current amplitudes after 2 to 3 days by patch clamp assay. The format is cell-based, GH4-C1.

The structures appear in SMILES notation. The source made the active and inactive calls. The rule behind the calls is not given here.

Chain of Neuronal acetylcholine receptor; alpha4/beta2 (P09483 whole entry): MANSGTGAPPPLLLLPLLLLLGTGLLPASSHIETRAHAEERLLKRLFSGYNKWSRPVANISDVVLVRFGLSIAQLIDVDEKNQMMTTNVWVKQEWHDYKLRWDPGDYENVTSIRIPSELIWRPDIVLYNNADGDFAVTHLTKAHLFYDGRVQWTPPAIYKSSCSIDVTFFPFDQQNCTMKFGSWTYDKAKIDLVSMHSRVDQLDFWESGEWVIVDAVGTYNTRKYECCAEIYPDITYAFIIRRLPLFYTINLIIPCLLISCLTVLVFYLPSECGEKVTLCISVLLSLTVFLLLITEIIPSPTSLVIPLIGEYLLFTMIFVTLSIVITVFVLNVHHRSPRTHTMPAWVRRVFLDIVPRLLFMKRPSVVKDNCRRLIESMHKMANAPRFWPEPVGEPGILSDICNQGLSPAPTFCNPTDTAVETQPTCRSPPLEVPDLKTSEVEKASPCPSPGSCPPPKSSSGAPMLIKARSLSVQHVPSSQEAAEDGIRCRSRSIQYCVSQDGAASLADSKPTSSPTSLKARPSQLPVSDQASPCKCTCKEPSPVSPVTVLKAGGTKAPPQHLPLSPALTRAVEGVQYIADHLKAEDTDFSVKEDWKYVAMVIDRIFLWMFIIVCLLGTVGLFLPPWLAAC
Chain of Neuronal acetylcholine receptor; alpha4/beta2 (P12390 whole entry): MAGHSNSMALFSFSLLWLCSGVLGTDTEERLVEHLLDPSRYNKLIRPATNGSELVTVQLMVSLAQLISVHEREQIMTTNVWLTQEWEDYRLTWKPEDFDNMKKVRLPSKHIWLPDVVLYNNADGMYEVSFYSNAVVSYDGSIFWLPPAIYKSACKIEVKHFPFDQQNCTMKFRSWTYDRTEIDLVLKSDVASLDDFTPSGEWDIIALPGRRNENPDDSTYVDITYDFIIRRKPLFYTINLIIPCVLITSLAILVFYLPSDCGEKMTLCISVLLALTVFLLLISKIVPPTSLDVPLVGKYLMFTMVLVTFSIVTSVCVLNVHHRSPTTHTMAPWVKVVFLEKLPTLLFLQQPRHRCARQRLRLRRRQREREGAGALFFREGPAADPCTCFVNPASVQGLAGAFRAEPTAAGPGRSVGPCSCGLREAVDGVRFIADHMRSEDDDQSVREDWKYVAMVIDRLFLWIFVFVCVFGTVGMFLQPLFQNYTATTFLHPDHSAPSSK

On to `Ic1cccc(C2=NCCCC2)c1`, for which the inhibition result in test [1] and in test [3] was “inactive” each time. Also, the Ratio Ki in test [2] stood at 806; in test [8], 2.4. Further, in test [4], the Emax came out at 60%. The inhibition constant (Ki) in test [5] was found to be 4.7 nM; in [9], 11.3 nM; in test [10], 3790 nM. The outcome in [6] and in test [7] was inactive.
Consider `OCc1cccc(C2=NCCCC2)c1`, for which the EC50 in test [11] was 60000 nM; in test [12] it was 20000 nM. Further, the Ratio Ki amounted to 438 in test [2] and 2 in test [8]. In addition, the figures for the Ki in [5], in [9] and in test [10] were 80 nM, 158 nM and 35000 nM, respectively.
With `Brc1cc(Br)cc(C2=NCCCC2)c1`, the inhibition entry in test [1] and in test [3] was “inactive” throughout. Also, the Ratio Ki in [2] worked out at 266; in test [8], 4.8. Further, the Ki in test [5] was 70.8 nM; in test [9], 343 nM; in [10], 18800 nM.
In the case of `Brc1cccc(C2=NCCCC2)c1`, the Ratio Ki in test [2] worked out at 168; in test [8], 1.5. For the same molecule, the Ki turned out to be 29.8 nM in [5], 43.2 nM in test [9] and 5020 nM in test [10].
The like results for `OCc1cccc([C@H]2C[C@@H]3CC[C@H]2N3)c1` (racemic) were, in that order, 4.7, 20, 92 nM, 1800 nM and 429 nM.
Regarding `c1cncc(C2=NCCCC2)c1` [ANABASEINE], the Ratio Ki in test [2] was 0.6; in test [8], 0.3. Further, the Ki came out at 107 nM in [5], 32 nM in test [9] and 67 nM in test [10].
In the same order, the values of `Clc1cccc(C2=NCCCC2)c1` are 149, 5.1, 77.2 nM, 394 nM and 11500 nM.
Consider `Oc1cccc(C2=NCCCC2)c1`, for which the Ratio Ki amounted to 47 in test [2] and 14 in test [8]. The Ki in [5] was 680 nM; in test [9] it was 9300 nM; in test [10] it was 32000 nM.
The like results for `Fc1cc(Br)cc(C2=NCCCC2)c1` were, in that order, 37, 4.3, 48 nM, 204 nM and 1770 nM.
The like results for `Cc1cccc(C2=NCCCC2)c1` were, in that order, 9.4, 2.5, 155 nM, 384 nM and 1450 nM.
In the same order, the values of `Oc1cccc([C@H]2C[C@@H]3CC[C@H]2N3)c1` (racemic) are 1.6, 7.6, 80 nM, 609 nM and 127 nM.
`c1ccc(C2=NCCCC2)cc1`: the Ratio Ki in test [2] came out at 11; in [8], 12. Besides, the values for the Ki in [5], in [9] and in [10] were 194 nM, 2400 nM and 2080 nM, respectively.
Regarding `OCc1cc(F)cc(C2=NCCCC2)c1`, the Ratio Ki in test [2] was 9.3; in [8], 10. In addition, the Ki amounted to 80 nM in test [5], 821 nM in test [9] and 744 nM in [10].
In the same order, the values of `Fc1cccc(C2=NCCCC2)c1` are 19, 22, 108 nM, 2370 nM and 2040 nM.

As usually defined, the Emax is the greatest response seen or fitted, relative to the assay's reference. A word on the Ki: it is a dissociation constant, usually derived from enzyme kinetics or from competition with a known ligand. Read a low Ki as higher affinity. By EC50 is commonly meant the concentration giving half of the maximal effect.
